US10093656B2, “Fused-ring or tricyclic aryl pyrimidine compound used as kinase inhibitor” (NANJING SANHOME PHARMACEUTICAL CO., LTD, priority 2015, dated 2018)

Tests used:
EGFR wild type = target: T1, EGFR wild type (Homo sapiens, UniProt P00533); test: Wild-type EGFR enzyme HTRF inhibition assay; format: biochemical; conditions: 25 μM ATP, read-out: EGFR WT IC50
T1 construct: purchased Life technology (Madison, Wis.)
In short: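 HTRF with 0.05 nM wild-type EGFR, 1 μM biotin-TK1 peptide, 25 μM ATP, 60 min at 23° C; detected with Eu-anti-TK1 antibody 2 nM and XL665 62.5 nM, 60 min at 23° C. Ten 3-fold doses, 300 nM to 0.015 nM final; IC50 by four-parameter fit of % inhibition.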

EGFR d746-750/T790M = target: T2, EGFR d746-750/T790M (Homo sapiens, UniProt P00533, DEL746-750/T790M); test: EGFR d746-750/T790M enzyme HTRF inhibition assay; format: biochemical; conditions: 40 μM ATP
T2 construct: purchased Carna Biosciences (Japan)
T2 sequence (P00533 with tags, fused parts or gaps DEL746-750/T790M limits assumed): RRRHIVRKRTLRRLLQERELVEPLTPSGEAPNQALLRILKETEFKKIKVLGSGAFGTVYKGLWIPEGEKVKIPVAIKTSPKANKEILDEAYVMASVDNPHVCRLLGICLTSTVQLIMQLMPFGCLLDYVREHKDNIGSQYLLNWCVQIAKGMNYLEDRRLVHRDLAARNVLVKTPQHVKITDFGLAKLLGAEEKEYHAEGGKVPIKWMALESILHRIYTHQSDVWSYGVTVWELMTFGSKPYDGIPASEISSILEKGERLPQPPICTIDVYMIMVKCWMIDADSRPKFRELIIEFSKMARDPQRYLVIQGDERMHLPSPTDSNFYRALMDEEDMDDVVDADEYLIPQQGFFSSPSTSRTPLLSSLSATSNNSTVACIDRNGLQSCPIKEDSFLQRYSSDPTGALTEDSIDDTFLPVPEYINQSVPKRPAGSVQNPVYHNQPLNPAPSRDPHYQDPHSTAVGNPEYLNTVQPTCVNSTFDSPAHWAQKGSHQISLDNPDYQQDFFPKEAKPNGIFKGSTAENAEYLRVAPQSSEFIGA
In short: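 0.025 nM enzyme with 1 μM biotin-TK1 peptide and 40 μM ATP, 60 min at 23° C; compound tested at 10 doses, 300 nM to 0.015 nM final. HTRF read (Eu-anti-TK1 antibody 2 nM, XL665 62.5 nM, 60 min at 23° C); IC50 from four-parameter fit of % inhibition.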

EGFR T790M/L858R = target: T3, EGFR T790M/L858R (Homo sapiens, UniProt P00533, L858R/T790M); test: EGFR T790M/L858R enzyme HTRF inhibition assay; format: biochemical; conditions: 20 μM ATP, read-out: EGFR L858R/T79M IC50
T3 construct: purchased Life technology (Madison, Wis.)
T3 sequence (P00533 25-1210 T790M/L858R): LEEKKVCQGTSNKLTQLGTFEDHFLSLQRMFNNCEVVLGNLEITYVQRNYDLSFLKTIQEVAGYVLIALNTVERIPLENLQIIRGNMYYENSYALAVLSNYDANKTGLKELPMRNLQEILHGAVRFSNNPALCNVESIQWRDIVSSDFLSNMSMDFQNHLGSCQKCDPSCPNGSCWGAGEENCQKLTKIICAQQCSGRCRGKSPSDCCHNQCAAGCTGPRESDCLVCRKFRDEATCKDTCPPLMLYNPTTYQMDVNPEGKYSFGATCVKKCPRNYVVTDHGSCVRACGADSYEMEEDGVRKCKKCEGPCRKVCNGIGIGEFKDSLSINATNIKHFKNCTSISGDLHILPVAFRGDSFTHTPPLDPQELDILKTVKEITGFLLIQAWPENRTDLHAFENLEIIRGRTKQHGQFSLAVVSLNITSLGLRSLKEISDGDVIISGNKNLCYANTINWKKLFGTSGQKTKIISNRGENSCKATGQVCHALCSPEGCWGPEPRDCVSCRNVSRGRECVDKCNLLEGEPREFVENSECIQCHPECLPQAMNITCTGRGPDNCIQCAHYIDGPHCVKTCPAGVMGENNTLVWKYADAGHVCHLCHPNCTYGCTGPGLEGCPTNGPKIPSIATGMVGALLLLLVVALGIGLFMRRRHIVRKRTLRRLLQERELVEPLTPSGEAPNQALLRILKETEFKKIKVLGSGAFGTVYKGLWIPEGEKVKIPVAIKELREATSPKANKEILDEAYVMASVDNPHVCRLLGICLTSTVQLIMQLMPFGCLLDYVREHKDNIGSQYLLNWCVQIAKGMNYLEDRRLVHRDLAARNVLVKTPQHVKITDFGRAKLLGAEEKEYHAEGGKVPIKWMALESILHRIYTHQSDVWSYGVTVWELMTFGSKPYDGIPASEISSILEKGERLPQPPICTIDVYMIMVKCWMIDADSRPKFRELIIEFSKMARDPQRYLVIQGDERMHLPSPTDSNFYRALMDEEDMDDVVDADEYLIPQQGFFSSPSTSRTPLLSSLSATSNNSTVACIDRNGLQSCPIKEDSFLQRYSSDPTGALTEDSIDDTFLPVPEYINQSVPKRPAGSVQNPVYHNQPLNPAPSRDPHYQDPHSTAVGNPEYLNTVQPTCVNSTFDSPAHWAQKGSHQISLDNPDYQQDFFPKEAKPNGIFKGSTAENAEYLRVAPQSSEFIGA
In short: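 HTRF assay with 0.04 nM enzyme, 1 μM biotin-TK1 peptide and 20 μM ATP, 60 min at 23° C. Product detected with Eu-anti-TK1 antibody/XL665 (60 min at 23° C); compound at 10 doses, 300 nM to 0.015 nM final. IC50 from four-parameter fit.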

INSR = target: T4, INSR (Homo sapiens, UniProt P06213); test: INSR enzyme HTRF inhibition assay; format: biochemical; conditions: 35 μM ATP, read-out: INSR_IC50
T4 construct: purchased Life technology (Madison, Wis.)
T4 sequence (P06213 28-1382): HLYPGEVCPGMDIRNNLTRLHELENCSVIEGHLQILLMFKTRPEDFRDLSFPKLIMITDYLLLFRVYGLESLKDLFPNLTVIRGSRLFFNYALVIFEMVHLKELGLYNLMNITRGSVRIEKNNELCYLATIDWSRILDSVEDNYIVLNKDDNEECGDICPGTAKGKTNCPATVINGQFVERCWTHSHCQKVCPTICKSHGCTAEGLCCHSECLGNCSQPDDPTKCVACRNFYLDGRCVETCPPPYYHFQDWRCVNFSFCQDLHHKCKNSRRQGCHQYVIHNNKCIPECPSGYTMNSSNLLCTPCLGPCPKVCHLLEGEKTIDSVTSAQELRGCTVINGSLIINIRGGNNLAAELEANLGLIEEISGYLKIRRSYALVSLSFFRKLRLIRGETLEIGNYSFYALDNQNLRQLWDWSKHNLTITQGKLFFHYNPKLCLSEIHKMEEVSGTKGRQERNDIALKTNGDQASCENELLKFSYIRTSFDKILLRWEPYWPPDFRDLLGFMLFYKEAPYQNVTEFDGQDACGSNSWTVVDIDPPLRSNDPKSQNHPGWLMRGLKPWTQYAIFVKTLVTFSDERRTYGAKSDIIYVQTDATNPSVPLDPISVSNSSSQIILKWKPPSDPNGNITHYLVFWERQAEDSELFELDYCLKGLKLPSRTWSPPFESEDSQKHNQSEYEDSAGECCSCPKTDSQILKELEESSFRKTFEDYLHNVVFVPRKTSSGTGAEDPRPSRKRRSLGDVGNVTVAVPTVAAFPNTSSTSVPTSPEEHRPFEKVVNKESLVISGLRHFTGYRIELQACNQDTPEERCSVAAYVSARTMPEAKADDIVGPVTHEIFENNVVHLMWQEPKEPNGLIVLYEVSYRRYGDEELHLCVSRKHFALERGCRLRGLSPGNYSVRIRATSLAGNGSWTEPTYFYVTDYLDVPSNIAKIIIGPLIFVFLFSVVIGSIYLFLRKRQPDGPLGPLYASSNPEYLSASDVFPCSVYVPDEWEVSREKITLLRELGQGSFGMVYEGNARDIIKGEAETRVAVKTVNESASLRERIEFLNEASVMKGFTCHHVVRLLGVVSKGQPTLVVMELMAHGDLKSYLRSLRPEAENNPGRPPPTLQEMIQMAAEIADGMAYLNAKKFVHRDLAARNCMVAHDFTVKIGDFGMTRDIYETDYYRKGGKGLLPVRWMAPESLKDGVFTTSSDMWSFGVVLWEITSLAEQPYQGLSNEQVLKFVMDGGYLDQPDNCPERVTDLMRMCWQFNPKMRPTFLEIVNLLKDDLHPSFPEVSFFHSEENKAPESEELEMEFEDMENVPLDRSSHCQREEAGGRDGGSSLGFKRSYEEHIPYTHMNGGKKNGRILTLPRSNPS
Procedure: Enzyme: EGFR wild type, EGFR T790M/L858R, EGFR T790M and INSR were purchased from Life technology (Madison, Wis.), EGFR d746-750/T790M was purchased from Carna Biosciences (Japan).
HTRF Kit was purchased from Cis-Bio International which contained the Eu-labeled TK1 antibody, XL665 and biotin-labeled TK1 polypeptide substrates.
Detecting instrument: Envision (PerkinElmer).
The test compound was diluted 3-fold to obtain 10 doses of which the final concentration was from 300 nM to 0.015 nM.
INSR Enzyme Reaction Mixture System:
0.5 nM INSR, 1 μM biotin-TK1 peptide, 35 μM ATP enzyme buffer, a total of which was 10 μL. The reaction plate was white Proxiplate 384-Plus plate (PerkinElmer) and the mixture was reacted at 23° C. for 60 minutes.
Reaction Detection: 10 μL of detection reagent containing Antibody 2 nM and XL665 62.5 nM was added, and the reagent was incubated at 23° C. for 60 minutes. The plates were read by Envision.
The reading is converted to the suppression rate (%) by the following formula […]/(Max-Min)*100%. IC50 Data was measured by four-parameter curve fitting (Model 205 in XLFITS, IDBS).

[1] = tested on: NCI-H1975 cells EGFR L858R/T790M; test: NCI-H1975 cell viability assay (Cell Titer-Glo, 6 days); format: cell-based; conditions: Homo sapiens, 144 h
In short: (§1)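 A431 (EGFR WT) and NCI-H1975 (EGFR L858R/T790M) cells treated for 6 days at 37° C, in duplicate with 10 three-fold doses from 10 μM to 0.508 nM final. Viability read as CellTiter-Glo luminescence. IC50 from four-parameter fit of % inhibition.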

A431 cells EGFR WT = test: A431 cell viability assay (Cell Titer-Glo, 6 days); format: cell-based, human; conditions: for IC50: Homo sapiens, A-431, 144 h, A431 cells, 6 days; for A431:NCI-H1975 (ratio): ratio of cell IC50 A431 to NCI-H1975
In short: as §1

[2] = tested on: human skin squamous cell A431 xenograft (CDX); test: Selectivity study in vivo, A431 xenograft (CDX) model; set-up: species or system BALB/c nude mice; conditions: Table 5 experiment, AZD9291 5 mg/kg; for Tumor Volume (mm^3) 4 days: day 4, oral once daily: 33, 34, 40, 42, 43 20 mg/kg; for Tumor Volume (mm^3) 11 days: day 11, oral once daily: 33, 34, 40, 42, 43 20 mg/kg; for Tumor Volume (mm^3) 18 days: day 18, oral once daily: 33, 34, 40, 42, 43 20 mg/kg
Procedure: In this model, the less inhibitory effect on the tumor, the better the selectivity in vivo.
The selective experiments in vivo were performed on BALB/c nude mice that subcutaneously implanted human skin squamous cell A431 xenograft (CDX).
BALB/c nude mice, female, 6-8 weeks, weighted about 18-20 grams, the mice were kept in a special pathogen-free environment and in a single ventilation cage (5 mice per cage). The bedding and water of all the cages were disinfected before use. All animals were free to obtain standard certified commercial laboratory diets. All mice were purchased from mice of Shanghai BK Laboratory Animal Co., LTD for research. The tumor tissue (20-30 mm^3) was implanted subcutaneously in the […] of each mouse for tumor growth. The experiment was started when the average tumor volume reached about 150-200 mm^3. The test compound was orally administered (compounds 17, 30, 37 and 38 were administered once daily at 20 mg/kg, the compound AZD9291 was administered once daily at 5 mg/kg, the compound CO-1686 was administered twice daily at 50 mg/kg, the compound Erlotinib was administered once daily at 75 mg/kg and the compound Afatinib was administered once daily at 7.5 mg/kg, 21 days of continuous administration. The data were shown in Table 4; compounds 33, 34, 40, 42 and 43 were administered once daily at 20 mg/kg and compound AZD9291 was administered once daily at5 mg/kg, 21 days of continuous administration. The tumor volume was measured twice a week with a two-dimensional caliper and the volume was measured in cubic millimeters and calculated by the following formula: V=V=0.5 a×b2, where a and b were the major and minor diameters of the tumor, respectively.

[3] = tested on: NCI-H1975 lung cancer patient-derived xenograft (CDX); test: Pharmacodynamics study in vivo, NCI-H1975 xenograft (CDX) model; set-up: species or system BALB/c nude mice; conditions: AZD9291 5 mg/kg; for Tumor Volume (mm^3) 4 days: day 4, oral daily: compound 30 10 mg/kg, 33, 34, 40, 42, 43 20 mg/kg; for Tumor Volume (mm^3) 7 days: day 7, oral daily: compound 30 10 mg/kg, 33, 34, 40, 42, 43 20 mg/kg; for Tumor Volume (mm^3) 11 days: day 11, oral daily: compound 30 10 mg/kg, 33, 34, 40, 42, 43 20 mg/kg; for Tumor Volume (mm^3) 14 days: day 14, oral daily: compound 30 10 mg/kg, 33, 34, 40, 42, 43 20 mg/kg; for Tumor Volume (mm^3) 18 days: day 18, oral daily: compound 30 10 mg/kg, 33, 34, 40, 42, 43 20 mg/kg
Procedure: For example, after 21 days of administration, the tumor volume of the representative compounds 30, 33, 34, 40, 42 and 43 decreased from the beginning of about 149 mm^3 to 3-39 mm^3.
The pharmacological experiments in vivo were performed on BALB/c nude mice that subcutaneously implanted NCI-H1975 lung cancer […] xenograft (CDX).
BALB/c nude mice, female, 6-8 weeks, weighted about 18-22 grams, the mice were kept in a special pathogen-free environment, and in a single ventilation cage (5 mice per cage). The bedding and water of all the cages were disinfected before use. All animals were free to obtain standard certified commercial laboratory diets. A total of 100 mice were purchased from Beijing Vital for research. The tumor tissue (20-30 mm^3) was implanted subcutaneously in the […] of each mouse for tumor growth. The experiment was started when the average tumor volume reached about 150-200 mm^3. The test compound was orally administered daily (compound 30 was administered at 10 mg/kg, compound 33, 34, 40, 42 and 43 were administered at 20 mg/kg and compound AZD9291 was administered continuously for 21 days at 5 mg/kg, the data were shown in Table 3). The tumor volume was measured twice a week with a two-dimensional caliper and the volume was measured in cubic millimeters and calculated by the following formula: V=V=0.5 a×b2, where a and b were the major and minor diameters of the tumor, respectively.

T1 sequence (P00533 25-1210): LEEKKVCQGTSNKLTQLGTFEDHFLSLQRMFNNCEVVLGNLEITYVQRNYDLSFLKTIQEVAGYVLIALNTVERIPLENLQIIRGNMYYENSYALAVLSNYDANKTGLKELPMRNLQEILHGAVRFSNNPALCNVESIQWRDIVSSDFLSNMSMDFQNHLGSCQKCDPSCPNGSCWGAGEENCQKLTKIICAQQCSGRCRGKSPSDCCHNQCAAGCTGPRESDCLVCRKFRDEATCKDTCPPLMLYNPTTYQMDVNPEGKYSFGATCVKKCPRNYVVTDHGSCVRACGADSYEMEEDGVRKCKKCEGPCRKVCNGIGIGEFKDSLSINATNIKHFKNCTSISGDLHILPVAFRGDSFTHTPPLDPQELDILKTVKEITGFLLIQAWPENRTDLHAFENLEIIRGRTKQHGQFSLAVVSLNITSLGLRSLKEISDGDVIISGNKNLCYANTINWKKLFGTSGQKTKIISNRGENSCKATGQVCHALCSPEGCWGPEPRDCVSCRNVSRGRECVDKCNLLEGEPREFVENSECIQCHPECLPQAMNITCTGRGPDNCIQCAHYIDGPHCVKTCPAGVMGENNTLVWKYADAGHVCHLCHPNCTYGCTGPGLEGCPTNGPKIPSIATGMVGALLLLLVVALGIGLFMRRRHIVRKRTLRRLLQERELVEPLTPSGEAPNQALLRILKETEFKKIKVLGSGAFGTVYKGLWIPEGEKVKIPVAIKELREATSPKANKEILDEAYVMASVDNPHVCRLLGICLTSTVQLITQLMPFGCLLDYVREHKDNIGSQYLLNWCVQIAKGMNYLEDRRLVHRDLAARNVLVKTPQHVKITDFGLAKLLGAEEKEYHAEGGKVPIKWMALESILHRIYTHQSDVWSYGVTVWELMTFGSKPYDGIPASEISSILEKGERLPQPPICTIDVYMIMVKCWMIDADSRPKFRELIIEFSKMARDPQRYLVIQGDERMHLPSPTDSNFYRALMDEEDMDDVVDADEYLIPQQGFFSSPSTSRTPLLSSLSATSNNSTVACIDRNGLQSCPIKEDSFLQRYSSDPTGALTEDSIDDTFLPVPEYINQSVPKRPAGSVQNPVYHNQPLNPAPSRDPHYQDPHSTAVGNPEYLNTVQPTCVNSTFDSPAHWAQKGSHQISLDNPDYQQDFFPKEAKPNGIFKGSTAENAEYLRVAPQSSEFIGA

IC50 (EGFR wild type) [nM]	IC50 (EGFR d746-750/T790M) [nM]	IC50 (EGFR T790M/L858R) [nM]	IC50 (INSR) [nM]	IC50 [1] [nM]	IC50 (A431 cells EGFR WT) [nM]	SMILES	A431:NCI-H1975 (ratio) (A431 cells EGFR WT)	Tumor Volume (mm^3) 4 days [2] [mm^3]	Tumor Volume (mm^3) 11 days [2] [mm^3]	Tumor Volume (mm^3) 18 days [2] [mm^3]	Tumor Volume (mm^3) 4 days [3] [mm^3]	Tumor Volume (mm^3) 7 days [3] [mm^3]	Tumor Volume (mm^3) 11 days [3] [mm^3]	Tumor Volume (mm^3) 14 days [3] [mm^3]	Tumor Volume (mm^3) 18 days [3] [mm^3]
1.7	0.19	0.21	570	5	485	C=CC(=O)Nc1cc(Nc2nccc(-c3c4n(c5ccccc35)CCOC4)n2)c(OC)cc1N(C)CCNC [Embodiment 27, N-(5-((4-(3,4-Dihydro-1H-[1,4]oxazino[4,3-a]indol-10-yl)pyrimidin-2-yl)amino)-4-methoxy-2-(methyl(2-(methylamino)ethyl)amino)phenyl)acrylamide]	97								
0.8	0.4	0.3		23	279	C=CC(=O)Nc1cc(Nc2nccc(-c3cn4c5c(cccc35)OCCC4)n2)c(OC)cc1N(C)CCN(C)C [Embodiment 40, N-(5-((4-(3,4-Dihydro-2H-[1,4]oxazepino[2,3,4-hi]indol-7-yl)pyrimidin-2-yl)amino)-2-((2-(dimethylamino)ethyl)(methyl)amino)-4-methoxyphenyl)acrylamide]	12	212	445	895	108	85	91	91	84
0.8	0.2	0.2		177	846	C=CC(=O)Nc1cc(Nc2nccc(-c3cn4c5c(cccc35)OC3(CC3)C4)n2)c(OC)cc1N(C)CCN(C)C [Embodiment 42, N-(5-((4-(3H-Spiro[[1,4]oxazino[2,3,4-hi]indole-2,1′-cyclopropan]-6-yl)pyrimidin-2-yl)amino)-2-((2-(dimethylamino)ethyl)(methyl)amino)-4-methoxyphenyl)acrylamide]	4.8	226	424	661	85	69	57	47	20

The next lines start with the molecule.

SMILES	IC50 (EGFR wild type) [nM]	IC50 (EGFR d746-750/T790M) [nM]	IC50 (EGFR T790M/L858R) [nM]	IC50 (INSR) [nM]	IC50 [1] [nM]	IC50 (A431 cells EGFR WT) [nM]	A431:NCI-H1975 (ratio) (A431 cells EGFR WT)	Tumor Volume (mm^3) 4 days [2] [mm^3]	Tumor Volume (mm^3) 11 days [2] [mm^3]	Tumor Volume (mm^3) 18 days [2] [mm^3]	Tumor Volume (mm^3) 4 days [3] [mm^3]	Tumor Volume (mm^3) 7 days [3] [mm^3]	Tumor Volume (mm^3) 11 days [3] [mm^3]	Tumor Volume (mm^3) 14 days [3] [mm^3]	Tumor Volume (mm^3) 18 days [3] [mm^3]
C=CC(=O)Nc1cc(Nc2nccc(-c3c4n(c5ccccc35)CCC4)n2)c(OC)cc1N(C)CCN(C)C [Embodiment 1]	1.49	0.39	0.32	404	10.4	714	71.4								
C=CC(=O)Nc1cc(Nc2nccc(-c3c4n(c5ccccc35)CCC4)n2)c(OC)cc1OCCN(C)C [Embodiment 3, N-(5-((4-(2,3-Dihydro-1H-pyrrolo[1,2-a]indol-9-yl)pyrimidin-2-yl)amino)-2-(2-(dimethylamino)ethoxy)-4-methoxyphenyl)acrylamide]	1.58	0.19	0.21	886	67.2	854	12.7								
C=CC(=O)Nc1cc(Nc2nccc(-c3c4n(c5ccccc35)CCOC4)n2)c(OC)cc1N(C)CCN(C)C [Embodiment 17, N-(5-((4-(3,4-Dihydro-1H-[1,4]oxazino[4,3-a]indol-10-yl)pyrimidin-2-yl)amino)-2-((2-(dimethylamino)ethyl)(methyl)amino)-4-methoxyphenyl)acrylamide]	0.89	0.18	0.21	341	4.1	777	189.5								
C=CC(=O)Nc1cc(Nc2nccc(-c3c4n(c5ccccc35)CCOC4)n2)c(OC)cc1N(C)CCN(C)CC [Embodiment 18, N-(5-((4-(3,4-Dihydro-1H-[1,4]oxazino[4,3-a]indol-10-yl)pyrimidin-2-yl)amino)-2-((2-(ethyl(methyl)amino)ethyl)(methyl)amino)-4-methoxyphenyl)acrylamide]	1.9	0.18	0.2	633	7	518	74								
C=CC(=O)Nc1cc(Nc2nccc(-c3c4n(c5ccccc35)CCOC4)n2)c(OC)cc1N(C)CC(C)(C)N(C)C [Embodiment 25, N-(5-((4-(3,4-Dihydro-1H-[1,4]oxazino[4,3-a]indol-10-yl)pyrimidin-2-yl)amino)-2-((2-(dimethylamino)-2-methylpropyl)(methyl)amino)-4-methoxyphenyl)acrylamide]	0.81	0.13	0.2	333	4	248	62								
